From publication PMC12238238, “Identification of gut bacteria reductases that biotransform steroid hormones” (Nature Communications, 2025)

Columns and labels:
baiH = target: T1, baiH ([Clostridium] scindens, UniProt P32370); test: LC-MS of products in E. coli expressing the gene; type: cell-based; settings: whole E. coli cells, anaerobic, 1 mg/100 mL steroid, 48 h, 37 °C; product progesterone
T1 construct: expressed in E. coli, whole-cell biotransformation
T1 sequence (P32370 1-661): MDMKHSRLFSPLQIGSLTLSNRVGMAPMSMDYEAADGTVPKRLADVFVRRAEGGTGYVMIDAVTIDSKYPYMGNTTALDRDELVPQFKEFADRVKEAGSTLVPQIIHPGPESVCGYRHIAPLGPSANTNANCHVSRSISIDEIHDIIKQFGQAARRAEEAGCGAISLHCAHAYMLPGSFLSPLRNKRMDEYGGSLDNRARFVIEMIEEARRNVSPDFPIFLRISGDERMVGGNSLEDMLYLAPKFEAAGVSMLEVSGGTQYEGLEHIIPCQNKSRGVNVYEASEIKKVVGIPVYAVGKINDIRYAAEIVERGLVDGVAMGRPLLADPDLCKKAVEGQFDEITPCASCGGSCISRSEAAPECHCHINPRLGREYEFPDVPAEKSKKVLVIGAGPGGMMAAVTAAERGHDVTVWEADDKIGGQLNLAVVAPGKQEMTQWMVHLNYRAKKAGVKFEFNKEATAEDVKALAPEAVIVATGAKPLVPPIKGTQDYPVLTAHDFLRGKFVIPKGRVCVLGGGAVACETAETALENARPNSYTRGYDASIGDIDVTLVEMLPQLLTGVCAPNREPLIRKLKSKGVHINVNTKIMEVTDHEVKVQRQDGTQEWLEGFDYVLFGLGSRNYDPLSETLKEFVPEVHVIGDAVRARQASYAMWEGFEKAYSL

[1] = target: T2, ci2350 (Δ4-3-ketosteroid 5β-reductase); test: isothermal titration calorimetry; type: binding, [Clostridium] innocuum; settings: 0.1 M sodium phosphate, 0.2 M NaCl, 20 mM BME, 0.5 mM CHAPS, pH 6.5, 25 °C; independent model, single site
T2 construct: recombinant in E. coli, Ni HisTrap purified (pET28a/kanamycin); mutants assayed in E. coli cells

dw0523 (3β-HSDH/I) = target: T3, dw0523 (3β-HSDH/I) (Dysosmobacter welbionis, UniProt A0A4D7AXI1); test: LC-MS of products in E. coli expressing the gene; type: cell-based; settings: whole E. coli cells, anaerobic, 1 mg/100 mL steroid, 48 h, 37 °C; product progesterone
T3 construct: gene EIO64_02590; expressed in E. coli, whole-cell biotransformation; separate (unfused) 3β-HSDH/I gene
T3 sequence (A0A4D7AXI1 1-497): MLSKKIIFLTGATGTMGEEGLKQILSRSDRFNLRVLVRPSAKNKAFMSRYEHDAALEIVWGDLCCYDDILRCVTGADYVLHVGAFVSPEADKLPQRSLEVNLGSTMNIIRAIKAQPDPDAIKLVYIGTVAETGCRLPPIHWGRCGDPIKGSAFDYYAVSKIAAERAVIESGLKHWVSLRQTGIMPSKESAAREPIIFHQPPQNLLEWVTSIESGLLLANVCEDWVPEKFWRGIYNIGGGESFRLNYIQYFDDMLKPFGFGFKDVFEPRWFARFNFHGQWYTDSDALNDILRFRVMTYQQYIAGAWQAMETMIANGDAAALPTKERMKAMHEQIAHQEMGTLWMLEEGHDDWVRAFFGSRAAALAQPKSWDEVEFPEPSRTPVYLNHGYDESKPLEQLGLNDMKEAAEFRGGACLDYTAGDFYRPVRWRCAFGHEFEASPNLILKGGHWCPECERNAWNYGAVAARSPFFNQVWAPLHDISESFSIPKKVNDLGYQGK

baiCD = target: T4, baiCD ([Clostridium] scindens, UniProt P19410); test: LC-MS of products in E. coli expressing the gene; type: cell-based; settings: whole E. coli cells, anaerobic, 1 mg/100 mL steroid, 48 h, 37 °C; product 5β-dihydroprogesterone
T4 construct: expressed in E. coli, whole-cell biotransformation
T4 sequence (P19410 1-639): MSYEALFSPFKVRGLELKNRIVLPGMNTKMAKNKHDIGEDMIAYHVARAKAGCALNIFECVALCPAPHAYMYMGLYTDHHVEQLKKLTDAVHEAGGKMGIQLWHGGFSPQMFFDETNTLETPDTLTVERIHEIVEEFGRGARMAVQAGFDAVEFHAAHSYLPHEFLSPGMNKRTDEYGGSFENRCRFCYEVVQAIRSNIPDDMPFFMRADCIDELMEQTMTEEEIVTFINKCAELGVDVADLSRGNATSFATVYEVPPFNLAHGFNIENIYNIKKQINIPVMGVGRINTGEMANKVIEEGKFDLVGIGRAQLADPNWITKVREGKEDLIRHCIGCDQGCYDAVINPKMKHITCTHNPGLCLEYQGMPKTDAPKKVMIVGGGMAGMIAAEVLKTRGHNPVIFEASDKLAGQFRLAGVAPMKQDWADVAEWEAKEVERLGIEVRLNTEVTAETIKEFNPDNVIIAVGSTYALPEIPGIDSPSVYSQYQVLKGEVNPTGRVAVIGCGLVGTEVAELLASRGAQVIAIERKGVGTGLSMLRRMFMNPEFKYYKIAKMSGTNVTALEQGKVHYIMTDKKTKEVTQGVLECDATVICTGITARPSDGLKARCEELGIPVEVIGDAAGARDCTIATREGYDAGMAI

CC(=O)[C@H]1CC[C@H]2[C@@H]3C=CC4=CC(=O)CC[C@]4(C)[C@H]3CC[C@]12C [6-dehydroprogesterone]
LC-MS of products in E. coli expressing the gene (baiH): only partial conversion of the substrate by C. scindens baiH
Kd [1]: 0.594 µM

C[C@]12CCC(=O)C=C1CC[C@@H]1[C@@H]2C(=O)C[C@@]2(C)[C@H]1CC[C@]2(O)C(=O)CO [cortisone]
Kd [1]: 0.759 µM

C[C@]12CCC(=O)C=C1CC[C@@H]1[C@@H]2[C@@H](O)C[C@@]2(C)[C@H]1CC[C@]2(O)C(=O)CO [hydrocortisone]
Kd [1]: 0.668 µM

CC(=O)[C@H]1CC[C@H]2[C@@H]3CC=C4C[C@@H](O)CC[C@]4(C)[C@H]3CC[C@]12C [pregnenolone]
LC-MS of products in E. coli expressing the gene (dw0523 (3β-HSDH/I)): with dw0523 producing only progesterone

CC(=O)[C@H]1CC[C@H]2[C@@H]3CCC4=CC(=O)CC[C@]4(C)[C@H]3CC[C@]12C [progesterone]
LC-MS of products in E. coli expressing the gene (baiCD): baiCD had limited, but detectable, reduction of progesterone
Kd [1]: 0.432 µM
